# Test system: p-IKKa levels in L363 (NIK translocated multiple myeloma) cells
# Assay: Assay 2: Effect of compounds on p-IKKa levels in L363 (NIK translocated multiple myeloma) cells
# Format: cell-based
# Details: Homo sapiens, L-363, 6 h, read-out: Assay 2 IC50 (nM), p-IKKa (Ser 176/180) in BAFF stimulated L363 cells with MG132, 6 h; average if tested more than once
# Description: Assay 2: Effect of Compounds on p-IKKa Levels in L363 (NIK Translocated Multiple Myeloma) Cells
# All compounds tested were dissolved and serially diluted in DMSO, 1:3 dilution for 11 points in an Echo compatible plate. 100% DMSO was added to columns 12 and 24 of the plate to serve as high and low signal controls. This compound plate was used to spot 20 nL of compound or DMSO into a Greiner 384 well TC plate (781080). The final DMSO concentration was 0.3% (v/v) in cell assays. Human L363 cells (ATCC) were cultured in RPM11640 medium supplemented with GlutaMax, non-essential amino acids, sodium pyruvate and 10% fetal bovine serum. Cells were routinely maintained at densities of 0.2×10^6 cells per ml—2×10^6 cells per mL at 37° C. in a humidified 5% CO2 atmosphere incubator. Cells were passaged twice a week splitting back to obtain the low density. The day before the assay, cells were washed twice in HBSS (Hank's Balanced Salt Solution), resuspended in Dulbecco's Modified Eagle Medium (DMEM)+0.5% IgG and protease free BSA (Jackson Immuno Research Laboratories), +/−250 ng/ml recombinant human B-cell activating factor (BAFF/BLyS/TNFSF13B) and incubated overnight at 37° C. in a humidified 5% CO2 atmosphere (bulk stimulation with or without BAFF). The next day, the cell concentration was adjusted to 1×10^7 cells/ml in DMEM+/−250 ng/ml BAFF +/−10 μM MG132 and plated at 10 μl/well into compound or DMSO spotted 384 well TC plates. Seeded cells were incubated at 37° C. in a humidified 5% CO2 atmosphere for 6 h. After 6 h, the plates were removed from the incubator and cell lysis was achieved by the addition of 2.5 μl 5×lysis buffer containing protease and phosphatase inhibitors, followed by shaking on a plate shaker at room temperature for 15 min. At the end of this incubation, lysed cells were sequentially treated and incubated with acceptor and donor bead mixes according to the manufacturer's protocol for a 1 plate/2-incubation suspension cell assay (AlphaLISA SureFire Ultra p-IKKa (Ser 176/180) Assay Kit (Perkin Elmer). Plates were read using an EnVision Multilabel Plate Reader (Perkin Elmer). Within an experiment, a concentration response curve for each compound was run in duplicate. The signal obtained in the test wells was normalized using high signal (BAFF stimulated cells, DMSO, MG132) and low signal (unstimulated cells, DMSO) controls. To determine the IC50, a sigmoidal curve was fitted to the plot of % inhibition versus Log10 compound concentration.
row,SMILES,IC50 [nM]
1,"CC1OCCn2ncc(Nc3nccc(-c4cccc(-c5cc([C@@]6(O)C(=O)N(C)CC6(F)F)on5)n4)n3)c21 (single isomer, unassigned) [Example 116, (R)-4,4-Difluoro-3-hydroxy-1-methyl-3-(3-(6-(2-(((*R)-4-methyl-6,7-dihydro-4H-pyrazolo[5,1-c][1,4]oxazin-3-yl)amino)pyrimidin-4-yl)pyridin-2-yl)isoxazol-5-yl)pyrrolidin-2-one]",50 to 500
2,"C[C@@H](Nc1nccc(-c2cccc(-n3cc([C@]4(O)CCN(C)C4=O)nn3)n2)n1)c1cnn(C)c1 (single isomer, unassigned) [Example 118]",> 500
3,"C[C@H](Nc1nccc(-c2cccc(-n3cc([C@]4(O)CCN(C)C4=O)nn3)n2)n1)c1cnn(C)c1 (single isomer, unassigned) [Example 119]",< 50
4,"CN1CC[C@@](O)(c2cc(-c3cccc(-c4ccnc(Nc5cnn(C)c5C(F)(F)F)n4)n3)no2)C1=O (single isomer, unassigned) [Example 132, (*R)-3-Hydroxy-1-methyl-3-(3-(6-(2-((1-methyl-5-(trifluoromethyl)-1H-pyrazol-4-yl)amino)pyrimidin-4-yl)pyridin-2-yl)isoxazol-5-yl)pyrrolidin-2-one]",< 50
5,"CN1CC[C@@](O)(c2cc(-c3cccc(-c4ccnc(Nc5cnn([C@H]6CCN(C7COC7)C6)c5)n4)n3)no2)C1=O (single isomer, unassigned) [Example 140]",< 50
6,"CN1CC[C@@](O)(c2cc(-c3cccc(-c4ccnc(Nc5cnn([C@@H]6CCN(C7COC7)C6)c5)n4)n3)no2)C1=O (single isomer, unassigned) [Example 141]",< 50
7,"C[C@@H](Nc1nccc(-c2cccc(-n3cc([C@]4(O)CCN(C)C4=O)nn3)n2)n1)c1ncccn1 (single isomer, unassigned) [Example 142]",50 to 500
8,"C[C@H](Nc1nccc(-c2cccc(-n3cc([C@]4(O)CCN(C)C4=O)nn3)n2)n1)c1ncccn1 (single isomer, unassigned) [Example 143]",50 to 500
9,"C[C@@H](Nc1nccc(-c2cccc(-c3cc([C@]4(O)CCN(C)C4=O)on3)n2)n1)c1cn[nH]c1 (single isomer, unassigned) [Example 148]",< 50
10,"C[C@H](Nc1nccc(-c2cccc(-c3cc([C@]4(O)CCN(C)C4=O)on3)n2)n1)c1cn[nH]c1 (single isomer, unassigned) [Example 149]",50 to 500
11,"Cc1noc([C@@H](C)Nc2nccc(-c3cccc(-c4cc([C@]5(O)CCN(C)C5=O)on4)n3)n2)n1 (single isomer, unassigned) [Example 150]",50 to 500
12,"Cc1noc([C@H](C)Nc2nccc(-c3cccc(-c4cc([C@]5(O)CCN(C)C5=O)on4)n3)n2)n1 (single isomer, unassigned) [Example 151]",50 to 500
13,"C[C@@H](Nc1nccc(-c2cccc(-c3cc([C@]4(O)CCN(C)C4=O)on3)n2)n1)c1ccncc1 (single isomer, unassigned) [Example 154]",50 to 500
14,"C[C@H](Nc1nccc(-c2cccc(-c3cc([C@]4(O)CCN(C)C4=O)on3)n2)n1)c1ccncc1 (single isomer, unassigned) [Example 155]",50 to 500
15,"Cc1cccnc1[C@@H](C)Nc1nccc(-c2cccc(-c3cc([C@]4(O)CCN(C)C4=O)on3)n2)n1 (single isomer, unassigned) [Example 156]",50 to 500
16,"Cc1cccnc1[C@H](C)Nc1nccc(-c2cccc(-c3cc([C@]4(O)CCN(C)C4=O)on3)n2)n1 (single isomer, unassigned) [Example 157]",> 500
17,"C[C@@H](Nc1nccc(-c2cccc(-c3cc([C@]4(O)CCN(C)C4=O)on3)n2)n1)c1cnc2ccccn12 (single isomer, unassigned) [Example 160]",> 500
18,"C[C@H](Nc1nccc(-c2cccc(-c3cc([C@]4(O)CCN(C)C4=O)on3)n2)n1)c1cnc2ccccn12 (single isomer, unassigned) [Example 161]",50 to 500
19,"CC(C)[C@@H](Nc1nccc(-c2cccc(-c3cc([C@]4(O)CCN(C)C4=O)on3)n2)n1)c1cnn(C)c1 (single isomer, unassigned) [Example 162]",> 500
20,"CC(C)[C@H](Nc1nccc(-c2cccc(-c3cc([C@]4(O)CCN(C)C4=O)on3)n2)n1)c1cnn(C)c1 (single isomer, unassigned) [Example 163]",50 to 500
21,"C[C@@H](Nc1nccc(-c2cccc(-c3cc([C@]4(O)CCN(C)C4=O)on3)n2)n1)c1ccn2ccnc2c1 (single isomer, unassigned) [Example 164]",> 500
22,"C[C@H](Nc1nccc(-c2cccc(-c3cc([C@]4(O)CCN(C)C4=O)on3)n2)n1)c1ccn2ccnc2c1 (single isomer, unassigned) [Example 165]",50 to 500
23,"CN1CC[C@@](O)(c2cc(-c3cccc(-c4ccnc(Nc5ccn(C)n5)n4)n3)n(C)n2)C1=O (single isomer, unassigned) [Example 166, (*R)-3-Hydroxy-1-methyl-3-(1-methyl-5-(6-(2-((1-methyl-1H-pyrazol-3-yl)amino)pyrimidin-4-yl)pyridin-2-yl)-1H-pyrazol-3-yl)pyrrolidin-2-one]",> 500
24,"COc1nn(CC(F)F)cc1Nc1nccc(-c2cccc(-c3cnc([C@]4(O)CCN(C)C4=O)s3)n2)n1 (single isomer, unassigned) [Example 188, (*R)-3-(5-(6-(2-((1-(2,2-Difluoroethyl)-3-methoxy-1H-pyrazol-4-yl)amino)pyrimidin-4-yl)pyridin-2-yl)thiazol-2-yl)-3-hydroxy-1-methylpyrrolidin-2-one]",< 50
25,"COc1nn(CC(F)F)cc1Nc1nccc(-c2cccc(-c3cc([C@@]4(O)CCN(C)C4=O)n[nH]3)n2)n1 (single isomer, unassigned) [Example 189, (*R)-3-(5-(6-(2-((1-(2,2-Difluoroethyl)-3-methoxy-1H-pyrazol-4-yl)amino)pyrimidin-4-yl)pyridin-2-yl)-1H-pyrazol-3-yl)-3-hydroxy-1-methylpyrrolidin-2-one]",< 50
26,"CC1OCCn2ncc(Nc3nccc(-c4cccc(-c5cc([C@]6(O)CCN(C)C6=O)on5)n4)n3)c21 (single isomer, unassigned) [Example 195, (R)-3-Hydroxy-1-methyl-3-(3-(6-(2-(((*R)-4-methyl-6,7-dihydro-4H-pyrazolo[5,1-c][1,4]oxazin-3-yl)amino)pyrimidin-4-yl)pyridin-2-yl)isoxazol-5-yl)pyrrolidin-2-one]",< 50
27,"CN1CC[C@@](O)(c2cc(-c3cccc(-c4ccnc(Nc5cnn(C)c5C(F)F)n4)n3)no2)C1=O (single isomer, unassigned) [Example 198, (*R)-3-(3-(6-(2-((5-(Difluoromethyl)-1-methyl-1H-pyrazol-4-yl)amino)pyrimidin-4-yl)pyridin-2-yl)isoxazol-5-yl)-3-hydroxy-1-methylpyrrolidin-2-one]",< 50
28,"COCCn1ccc(Nc2nccc(-c3cccc(-c4cc([C@]5(O)CCN(C)C5=O)on4)n3)n2)n1 (single isomer, unassigned) [Example 199, (*R)-3-Hydroxy-3-(3-(6-(2-((1-(2-methoxyethyl)-1H-pyrazol-3-yl)amino)pyrimidin-4-yl)pyridin-2-yl)isoxazol-5-yl)-1-methylpyrrolidin-2-one]",< 50
29,"CN1CC[C@H](n2cc(Nc3nccc(-c4cccc(-c5cc([C@]6(O)CCN(C)C6=O)on5)n4)n3)cn2)[C@@H](F)C1 (single isomer, unassigned) [Example 201]",< 50
